Laboratory results: patent US5198419A, “Formulated medicines for enhancing the efficacy of beta-lactam antibiotics in prophylaxis and treatment against infectious disease due to pathogenic bacteria” (Immuno Japan Inc., priority 1989, dated 1993)

Columns and labels:
[1] = tested on: Pseudomonas aeruginosa E8; assay: Example 10: experimental infection in mice, cloxacillin with or without lactoferrin; type: in vivo; conditions: for ED50: 10 MLD i.p.
Procedure: (§1) For ED50 values, a range of amounts of antibiotics is given in the examples (e.g., penicillin G: 0.4, 0.2, 0.1, 0.05 mg/mouse). To calculate the ED50, groups of mice in the monotherapy groups and groups of mice in the combined therapy groups received the indicated amount of antibiotic (e.g., one group received 0.4 mg/mouse of penicillin G, one group received 0.2 mg/mouse of penicillin G, one group received 0.1 mg/mouse of penicillin G, one group received 0.05 mg/mouse of penicillin G).
(§2) The potentiation of antibiotic efficacy by lactoferrin was examined using an infection model similar to Example 1. The antibiotics and lactoferrin were administered immediately after the injection (see Table 8). […] Lactoferrin (0.4 mg/mouse) potentiates the efficacies of the four beta-lactam antibiotics used: penicillin G against Streptococcus pyogenes infection was potentiated by 4.6 fold, cefazolin against S. epidermidis by 3.1 fold, methicillin against Diplococcus pneumoniae by 3.7 fold, and cloxacillin against Pseudomonas aeruginosa by 3.0 fold. Therefore, lactoferrin potentiates the efficacy of beta-lactam antibiotics against diseases caused by both gram-positive and gram-negative pathogenic bacteria.

[2] = tested on: Diplococcus pneumoniae Ch; assay: Example 10: experimental infection in mice, methicillin with or without lactoferrin; type: in vivo; conditions: for ED50: 100 MLD i.p.
Procedure: as §1, §2

Str. epidermids FT = assay: Example 10: experimental infection in mice, cefazolin with or without lactoferrin; type: in vivo; conditions: for ED50: 1000 MLD i.p.
Procedure: as §1, §2

[3] = tested on: Klebsiella pneumoniae strain 3K25; assay: Example 5: experimentally infected fed and fasted mice, cefpodoxime with or without native lactoferrin; type: in vivo, strain ICR
Procedure: as §1
Male mice, strain ICR, five weeks old, weighing an average of 21.6 g, were randomly allocated into sixteen groups (n =6). During the next 24 hours, eight groups were allowed free access to diet and water, while the other eight groups were fasted overnight. On the next day, all the mice were injected with 1.4×10^6 CFU/mouse of Klebsiella pneumoniae strain 3K25. The minimal lethal dose of this bacterium is […], and thus the injected dose was 1,000 times greater than the minimal lethal dose. Immediately after the injection, the fed groups were orally given cefpodoxime (10, 5, 2.5, and 1.25 mg/mouse) simultaneously with or without native lactoferrin (0.2 mg/mouse). The fasted groups also were orally given cefpodoxime (10, 5, 2.5, and 1.25 mg/mouse) simultaneously with or without native lactoferrin (0.2 mg/mouse).

[4] = tested on: Klebsiella pneumoniae strain 3K25; assay: Example 8: dose-response relationship of potentiation of cefpodoxime efficacy by oral lactoferrin; type: in vivo, mice, ddY
Procedure: as §1
The dose-response relationship of the potentiation of the antibiotic efficacy by lactoferrin was determined using the same experimental infection system as described in Example 1. Male ddY mice, five weeks of age, weighing approximate 20.3 g, were randomly allocated into groups (n=10); the first group was assigned to the cefpodoxime control (5 mg/mouse). The mice were intraperitoneally injected with pneumobacillus, Klebsiella pneumoniae strain 3K25, 3×10^5 per mouse. One hour after the injection, the antibiotic cefpodoxime (1, 0.5, 0.25 and 0.125 mg/mouse) was orally given in 0.2 ml of physiological saline.

[5] = tested on: Klebsiella pneumoniae strain 3K25; assay: Example 2: experimental infection in mice, cefpodoxime with or without apolactoferrin; type: in vivo, strain ICR; conditions: for ED50: p.o. 1 h after 5×10^5 CFU/mouse
Procedure: as §1
Sixty male mice, strain ICR, five weeks of age, weighing 19.3±1.1 g (mean body weight±the standard deviation) were randomly allocated into ten groups (n=6), and intraperitoneally injected with pneumobacilli, Klebsiella pneumoniae strain 3K25, 5×10^5 CFU/mouse. One hour after the injection, the first group was orally given 0.2 ml of physiological saline, the second group orally given iron free apolactoferrin (0.4 mg) in 0.2 ml of saline, the third through the sixth groups were orally given cefpodoxime (4, 2, 1, and 0.5 mg/mouse) in 0.2 ml saline, and the seventh through the tenth groups orally given the admixture of cefpodoxime (4, 2, 1, and 0.5 mg/mouse) and apolactoferrin (0.4 mg) in 0.2 ml of saline. Mice were fed ad libitum and observed for a week under the same conditions as described in Example 1.

[6] = tested on: Klebsiella pneumoniae strain 3K25; assay: Example 1: experimental infection in mice, cefpodoxime with or without native lactoferrin; type: in vivo, strain ICR
Procedure: as §1
Sixty male mice, strain ICR, four weeks of age, body weight 19±1.0 g (mean±the standard deviation) were randomly divided into ten groups (n=6); the first group was assigned to the untreated control, the second group to the lactoferrin treated control group, the third through the sixth groups to the cephalosporin treated controls, and the seventh through the tenth groups to the combined treatment group of cephalosporin and lactoferrin. The mice were intraperitoneally injected with pneumobacillus, Klebsiella pneumoniae strain 3K25, 5×10^6 colony forming units (CFU) per mouse. The antibiotics used were orally active cephalosporin or cefpodoxime, and the bovine lactoferrin was the native one derived from cheese whey with 28.5% iron-saturation. One hour after the injection, the untreated control was orally given 0.2 ml of physiological saline, the second group orally given lactoferrin (0.4 mg/mouse), the third through the sixth groups were orally given cefpodoxime (10, 5, 2.5 and 1.25 mg/mouse) in 0.2 ml of physiological saline, the seventh through the tenth groups orally given the admixture of cefpodoxime (5, 2.5, 1.25, and 0.625 mg/mouse) together with lactoferrin (0.4 mg/mouse) in 0.2 ml of the saline. All the mice were housed in an animal room, allowed free access to commercial pellet diet and water, and observed for one week.

bacteria in urine = assay: Example 11: patients with chronic urinary tract infection, cefaclor with or without apolactoferrin; type: in vivo, human patients; conditions: four weeks
Procedure: Seventeen patients (male 6, female 11, an average 63.5 years old) with chronic urinary tract infection were randomly allocated into two groups. All these patients excreted at least one species of bacteria in their urine for longer than four weeks, although they were treated orally with antibacterial agents. The first group (n=9) was treated for four weeks with 1,200 mg of cefaclor (400 mg, three times a day) and the second group (n=8) with the same dose of cefaclor (three times a day) combined with 600 mg of apolactoferrin (200 mg, three times a day). Urine specimens were collected every one week and the species of bacteria were identified and the quantity of excreted bacteria determined.

[7] = tested on: Klebsiella pneumoniae 3K25; assay: Example 7: experimental infection in mice, cefaclor with or without native lactoferrin; type: in vivo, strain ddY; conditions: Klebsiella pneumoniae, 3K25, po, 168 h, 1.5 × 10^6 CFU/mouse
[8] = tested on: Klebsiella pneumoniae strain 3K25; assay: Example 3: experimental infection in mice, cefaclor with or without hololactoferrin; type: in vivo, strain ICR; conditions: p.o. 1 h after 1×10^6 CFU/mouse
Procedure: as §1
Sixty male mice, strain ICR, five weeks of age, weighing 21.3±1.5 g (mean±the standard deviation) were randomly allocated into ten groups (n=6), and intraperitoneally injected with Klebsiella pneumoniae strain 3K25, 1×10^6 CFU/mouse. One hour after the injection, the first group was orally given 0.2 ml of physiological saline, the second group orally given hololactoferrin (100% ferric ion saturated lactoferrin, 0.4 mg/mouse), the third through the sixth groups orally given cefaclor (2.0, 1.0, 0.5 and 0.25 mg/mouse each) in 0.2 ml of saline, and the seventh through the tenth groups orally given cefaclor (2.0, 1.0, 0.5 and 0.25 mg/mouse each) and hololactoferrin (100% iron saturated lactoferrin, 0.4 mg/mouse) in 0.2 ml of saline. The mice were fed ad libitum and observed for one week under the same conditions as described in Example 1.

[9] = tested on: Streptococcus pyogenes #59; assay: Example 10: experimental infection in mice, penicillin G with or without lactoferrin; type: in vivo; conditions: for ED50: 1000 MLD i.p.
Procedure: as §1, §2

[10] = tested on: Staphylococcus aureus 209P; assay: Example 9: time-schedule of lactoferrin administration and efficacy of amoxicillin; type: in vivo, mice, ddY
Procedure: as §1
The effect of time-schedule of lactoferrin administration on the potentiation of antibiotic efficacy was examined using an experimental model similar to Example 1. Male ddY mice (n=10), five weeks old, weighing an average of 21.9 g, were used in this experiment. On day 0 all the mice were intraperitoneally injected with 1.2×10^5 CFU/mouse of Staphylococcus aureus 209P. Amoxicillin ([…], 0.625 mg/mouse) was orally given one hour after the injection.

Escherichia coli #11 = assay: Example 7: experimental infection in mice, cephalexin with or without native lactoferrin; type: in vivo, strain ddY; conditions: po, 168 h, 1.7 × 10^6 CFU/mouse
Procedure: as §1
Male mice, strain ddY, five weeks old, were randomly allocated into groups (n=10), and were intraperitoneally injected with Proteus mirabilis GN79 (1.3×10^6 CFU/mouse) or with Escherichia coli #11 (1.7×10^6 CFU/mouse) or with Klebsiella pneumoniae 3K25 (1.5×10^6 CFU/mouse). The doses are 1,000 times greater than the minimum lethal dose. Immediately after the injection, the first eight groups were orally given ampicillin, the second eight groups were orally given cephalexin, and the third eight groups were orally given cefaclor, respectively, each simultaneously with or without native lactoferrin (1 mg/mouse) in 0.2 ml of distilled water (see Table 7). All the mice were fed ad libitum and observed for one week under the same conditions as described in Example 1.

[11] = cloxacillin with lactoferrin (0.4 mg/mouse)
[12] = methicillin with lactoferrin (0.4 mg/mouse)
[13] = cefazolin with lactoferrin (0.4 mg/mouse)
[14] = penicillin G with lactoferrin (0.4 mg/mouse)

Compound: Cc1onc(-c2ccccc2Cl)c1C(=O)N[C@@H]1C(=O)N2[C@@H]1SC(C)(C)[C@@H]2C(=O)O [cloxacillin]
- ED50 ([1]; cloxacillin control): 3.16 mg/mouse
- potentiation of efficacy by lactoferrin [1, 11]: 3.0 fold
- ED50 [1, 11]: 1.06 mg/mouse

Compound: COc1cccc(OC)c1C(=O)N[C@@H]1C(=O)N2[C@@H]1SC(C)(C)[C@@H]2C(=O)O [methicillin]
- ED50 ([2]; methicillin control): 0.227 mg/mouse
- potentiation of efficacy by lactoferrin [2, 12]: 3.7 fold
- ED50 [2, 12]: 0.061 mg/mouse

Compound: Cc1nnc(SCC2=C(C(=O)O)N3C(=O)[C@@H](NC(=O)Cn4cnnn4)[C@H]3SC2)s1 [cefazolin]
- ED50 (Str. epidermids FT; cefazolin control): 0.152 mg/mouse
- potentiation of efficacy by lactoferrin (Str. epidermids FT; [13]): 3.1 fold
- ED50 (Str. epidermids FT; [13]): 0.048 mg/mouse

Compound: COCC1=C(C(=O)O)N2C(=O)[C@@H](NC(=O)/C(=N\OC)c3csc(N)n3)[C@H]2SC1 [cefpodoxime]
- ED50 ([3]; fasted, cefpodoxime (antibiotic) alone): 39.40 (27.15-56.15) mg/mouse
- ED50 ([3]; fasted, cefpodoxime admixture with lactoferrin (0.2 mg/mouse)): 7.80 (5.65-10.83) mg/mouse
- ED50 ([3]; fed, cefpodoxime (antibiotic) alone): 15.65 (11.45-21.30) mg/mouse
- ED50 ([3]; fed, cefpodoxime admixture with lactoferrin (0.2 mg/mouse)): 4.90 (3.65-6.60) mg/mouse
- ED50 ([4]; cefpodoxime with lactoferrin 0.00 mg/mouse): 0.473 mg/mouse
- ED50 ([4]; cefpodoxime with lactoferrin 0.005 mg/mouse): 0.382 mg/mouse
- ED50 ([4]; cefpodoxime with lactoferrin 0.05 mg/mouse): 0.104 mg/mouse
- ED50 ([4]; cefpodoxime with lactoferrin 0.5 mg/mouse): 0.104 mg/mouse
- ED50 ([4]; cefpodoxime with lactoferrin 5.0 mg/mouse): 0.104 mg/mouse
- ED50 ([4]; cefpodoxime with lactoferrin 50.0 mg/mouse): 0.104 mg/mouse
- ED50 ([5]; cefpodoxime combined therapy with apolactoferrin (0.4 mg), range 0.19-0.33 mg printed): 0.25 mg/mouse
- ED50 ([5]; cefpodoxime monotherapy, range 0.74-1.32 mg/mouse printed): 0.99 mg/mouse
- recovery of mice ([5]; cefpodoxime with apolactoferrin, combined therapy group): all the mice recovered
- ED50 ([6]; cefpodoxime alone, p.o. 1 h after i.p. injection of 5×10^6 CFU/mouse, 95% range not named (6.3-10.0 mg/mouse printed)): 7.93 mg/mouse
- life span versus untreated and lactoferrin controls ([6]; cefpodoxime treated group): significantly prolonged
- ED50 ([6]; cefpodoxime with native lactoferrin (0.4 mg/mouse), p.o. 1 h after injection of 5×10^6 CFU/mouse, range 0.92-1.70 mg/mouse printed): 1.25 mg/mouse
- life span versus untreated and lactoferrin controls ([6]; combined treatment groups of cefpodoxime and lactoferrin): significantly prolonged

Compound: N[C@@H](C(=O)N[C@@H]1C(=O)N2C(C(=O)O)=C(Cl)CS[C@H]12)c1ccccc1 [cefaclor]
- bacteria in the urine (bacteria in urine; cefaclor 1,200 mg combined with 600 mg apolactoferrin daily): bacteria were no longer detected in the urine
- patients still excreting bacteria (bacteria in urine; cefaclor monotherapy 1,200 mg daily): six patients out of nine
- efficacy of combined therapy versus monotherapy (bacteria in urine; cefaclor with apolactoferrin): significantly more effective
- ED50 ([7]; cefaclor alone): 28.5 mg/kg
- ED50 ([7]; cefaclor with lactoferrin (1 mg/mouse)): 10 mg/kg
- ED50 ([8]; cefaclor combined therapy with hololactoferrin (0.4 mg/mouse)): 0.30 mg/mouse
- ED50 ([8]; cefaclor monotherapy): 0.63 mg/mouse

Compound: CC1(C)S[C@@H]2[C@H](NC(=O)Cc3ccccc3)C(=O)N2[C@H]1C(=O)O [penicillin G]
- ED50 ([9]; penicillin G control): 0.106 mg/mouse
- potentiation of efficacy by lactoferrin [9, 14]: 4.6 fold
- ED50 [9, 14]: 0.023 mg/mouse

Compound: CC1(C)S[C@@H]2[C@H](NC(=O)[C@H](N)c3ccc(O)cc3)C(=O)N2[C@H]1C(=O)O [amoxicillin]
- ED50 ([10]; amoxicillin control, no lactoferrin): 2.46 mg/mouse
- ED50 ([10]; amoxicillin, lactoferrin (0.5 mg/mouse) dosed +3 (hr)): 0.78 mg/mouse
- ED50 ([10]; amoxicillin, lactoferrin (0.5 mg/mouse) dosed +12 (hr)): 2.48 mg/mouse
- ED50 ([10]; amoxicillin, lactoferrin (0.5 mg/mouse) dosed -1 (day)): 1.39 mg/mouse
- ED50 ([10]; amoxicillin, lactoferrin (0.5 mg/mouse) dosed -2 (day)): 2.46 mg/mouse
- ED50 ([10]; amoxicillin, lactoferrin (0.5 mg/mouse) dosed -3 (day)): 2.46 mg/mouse
- ED50 ([10]; amoxicillin, lactoferrin (0.5 mg/mouse) dosed -5 (day)): 2.14 mg/mouse
- ED50 ([10]; amoxicillin, lactoferrin (0.5 mg/mouse) dosed -6 (hr)): 0.40 mg/mouse
- ED50 ([10]; amoxicillin, lactoferrin (0.5 mg/mouse) dosed -12 (hr)): 0.55 mg/mouse
- ED50 ([10]; amoxicillin, lactoferrin (0.5 mg/mouse) dosed at 0): 0.40 mg/mouse

Compound: CC1=C(C(=O)O)N2C(=O)[C@@H](NC(=O)[C@H](N)c3ccccc3)[C@H]2SC1 [cephalexin]
- ED50 (Escherichia coli #11; cephalexin alone): 216 mg/kg
- ED50 (Escherichia coli #11; cephalexin with lactoferrin (1 mg/mouse)): 34.8 mg/kg
